Test [1] has as its system cultured human mast cells (CHMC). In words: CHMC low cell density ionomycin activation: tryptase assay. The settings on record: read-out: LD Tryptase, CHMC, Iono, 3 pt. Type of test: cell-based.
Test [2] shares this test system. Kind of test: CHMC low cell density IgE activation: tryptase assay. The settings on record: IgE activation. The class given is cell-based. In short, it runs like this: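 Low-density CHMC, 1000-1500 cells/well in MT; 1 hr 37 °C; anti-IgE challenge 30 min 37 °C; supernatant tryptase via fluorogenic substrate, 30 min RT.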
Setting [3] is: Homo sapiens, Mast cell, low cell density CHMC, tryptase release, 3 pt.
Setting [4] is: Homo sapiens, Mast cell, low cell density CHMC, tryptase release, 3 pt, read-out: LD Tryptase, CHMC, IgE, 3 pt.
The mark [5] stands for this setting: Homo sapiens, Mast cell, low cell density CHMC, tryptase release, 8 pt, read-out: LD Tryptase, CHMC, IgE, 8 pt.
[6] abbreviates: Homo sapiens, Mast cell, low cell density CHMC, tryptase release, 3 point.
[7] abbreviates: Homo sapiens, Mast cell, low cell density CHMC, tryptase release, 3 point, read-out: LD Tryptase, CHMC, IgE, 3 pt.
Where [8] appears, read: Homo sapiens, Mast cell, low cell density CHMC, tryptase, 3 pt.
Where [9] appears, read: Homo sapiens, Mast cell, low cell density CHMC, tryptase, 3 pt, read-out: LD Tryptase, CHMC, IgE, 3 pt.
The mark [10] stands for this setting: Homo sapiens, Mast cell, low cell density CHMC, tryptase, 8 pt, read-out: LD Tryptase, CHMC, IgE, 8 pt.
The mark [11] stands for this setting: Homo sapiens, Mast cell, low cell density CHMC, tryptase readout, 3 pt.
Setting [12] is: Homo sapiens, Mast cell, low cell density CHMC, tryptase readout, 3 pt, read-out: LD Tryptase, CHMC, IgE, 3 pt.
The mark [13] stands for this setting: Homo sapiens, Mast cell, low cell density CHMC, tryptase readout, 8 pt, read-out: LD Tryptase, CHMC, IgE, 8 pt.
[14] abbreviates: Homo sapiens, Mast cell, low cell density, 3 pt.
[15] abbreviates: Homo sapiens, Mast cell, low cell density, 3 pt, read-out: LD Tryptase, CHMC, IgE, 3 pt.
Setting [16] is: low cell density CHMC, tryptase release, 3 point.
[17] abbreviates: low cell density CHMC, tryptase release, 3 point, read-out: LD Tryptase, CHMC, IgE, 3 pt.
The mark [18] stands for this setting: low cell density CHMC, tryptase release, 8 point, read-out: LD Tryptase, CHMC, IgE, 8 pt.

From patent US20220073536A1 (Rigel Pharmaceuticals, Inc., priority 2003, published 2022) come the findings set out here.

Bounds are passed on as bounds.

As to `CS(=O)(=O)NCCCn1ncc2cc(Nc3ncc(F)c(Nc4ccc(Cl)c(Cl)c4)n3)ccc21` [Compound 833, N4-(3,4-Dichlorophenyl)-5-fluoro-N2-[1-[3-(N-methylsulfonylamino)propyl]indazol-5-yl]-2,4-pyrimidinediamine], the IC50 in test [1] (setting [3]) is over 10 µM; in test [2] (setting [4]), under 10 µM; in test [2] (setting [5]), under 10 µM.

For `CNC(=O)c1cc(Nc2ncc(F)c(Nc3ccc(Cl)c(OC)c3)n2)ccc1Cl` [Compound 607, N4-(4-Chloro-3-methoxyphenyl)-N2-[4-chloro-3-(N-methylamino)carbonylphenyl]-5-fluoro-2,4-pyrimidinediamine], the IC50 in test [1] (setting [6]) is over 10 µM; in test [2] (setting [7]), under 10 µM; in test [2] (Homo sapiens, Mast cell, low cell density CHMC, tryptase release, 8 point, read-out: LD Tryptase, CHMC, IgE, 8 pt) it was under 10 µM.

With `COc1ccc(Nc2nc(Cl)ncc2F)cc1Cl` [Compound 666], the IC50 in test [1] (setting [6]) and in test [2] (setting [7]) was over 10 µM throughout.

On to `OC1CCOc2ccc(Nc3nc(Nc4ccc(-c5ncco5)cc4)ncc3F)cc21` (stereo not shown) [Compound 1291, 5-Fluoro-N4-(4-hydroxy-3,4-dihydro-2H-1-benzopyran-6-yl)-N2-[4-(oxazol-2-yl)phenyl]-2,4-pyrimidinediamine], for which the IC50 was over 10 µM in test [1] (setting [8]), under 10 µM in test [2] (setting [9]) and under 10 µM in test [2] (setting [10]).

On to `COc1cc(Nc2ncc(F)c(Nc3cccc(NC4=NCCN4)c3)n2)cc(OC)c1` [Compound 1096, N2-(3,5-Dimethoxyphenyl)-5-fluoro-N4-[3-(N-2-imidazolin-2-yl)aminophenyl]-2,4-pyrimidinediamine], for which the results for the IC50 in test [1] (setting [11]), in test [2] (setting [12]) and in test [2] (setting [13]) were over 10 µM, under 10 µM and over 10 µM, respectively.

On to `CCn1cc2ccc(Nc3ncc(F)c(Nc4ccc5c(c4)NC(=O)C(C)(C)O5)n3)cc2n1` [Compound 761, N4-(2,2-Dimethyl-3-oxo-4H-benz[1,4]oxazin-6-yl)-N2-(2-ethylindazol-6-yl)-5-fluoro-2,4-pyrimidinediamine], for which the IC50 in test [1] (setting [8]) was over 10 µM; in test [2] (setting [9]) it was under 10 µM; in test [2] (setting [10]), under 10 µM.

As to `CC1(C)Oc2ccc(Nc3nc(Nc4cccc(-c5ncon5)c4)ncc3F)cc2NC1=O` [Compound 514, N4-(2,2-Dimethyl-3-oxo-4H-benz[1,4]oxazin-6-yl)-5-fluoro-N2-[3-(1,2,4-oxadiazol-3-yl)phenyl]-2,4-pyrimidinediamine], the IC50 in test [1] (setting [14]) was over 10 µM; in test [2] (setting [15]), under 10 µM.

Consider `CC1(C)Oc2ccc(Nc3nc(Nc4ccc5[nH]c(C(F)(F)F)nc5c4)ncc3F)nc2NC1=O` [Compound 846, N4-(2,2-Dimethyl-3-oxo-4H-5-pyrid[1,4]oxazin-6-yl)-5-fluoro-N2-(2-trifluoromethyl-1H-benzimidazol-5-yl)-2,4-pyrimidinediamine], for which the IC50 in test [1] (setting [3]) and in test [2] (setting [5]) was under 10 µM throughout.

For the compound `CC(=O)N1CCN(c2cccc(Nc3ncc(F)c(NC4CCCCC4)n3)c2)CC1` [Compound 1167, N2-[3-(4-Acetylpiperazino)phenyl]-N4-cyclohexyl-5-fluoro-2,4-pyrimidinediamine], the IC50 is over 10 µM in test [1] (setting [8]) and under 10 µM in test [2] (setting [9]).

For `CNC(=O)COc1cccc(Nc2ncc(F)c(N(C)c3cc(C)c(Cl)c(C)c3)n2)c1` [Compound 593, N4-(4-Chloro-3,5-dimethylphenyl)-5-fluoro-N4-methyl-N2-[3-(N-methylamino)carbonylmethyleneoxyphenyl]-2,4-pyrimidinediamine], the IC50 in test [1] (setting [16]) is over 10 µM; in test [2] (setting [17]) it was under 10 µM; in test [2] (setting [18]), under 10 µM.

Turning to `COc1ccc(N(C)c2nc(Cl)ncc2F)cc1Cl` [Compound 660], the IC50 in test [1] (setting [6]) and in test [2] (setting [7]) was over 10 µM throughout.

Take `C[C@H]1Oc2ccc(Nc3nc(Nc4cccc(-c5cocn5)c4)ncc3F)cc2NC1=O` [Compound 250]: the IC50 in test [1] (setting [3]), in test [2] (setting [4]) and in test [2] (setting [5]) was under 10 µM each time.

`Fc1cnc(Nc2ccc(N3CCOCC3)cc2)nc1NC1CCCCC1` [Compound 1162, N4-Cyclohexyl-5-fluoro-N2-(4-morpholinophenyl)-2,4-pyrimidinediamine]: the IC50 is over 10 µM in test [1] (setting [8]) and under 10 µM in test [2] (setting [9]).

For the compound “N2-[4-[1- (tert-Butoxycarbonylamino)methylenecarbonylamino]methylphenyl]-N4- (3,4-dichlorophenyl)-5-fluoro-N4-methyl-2,4-pyrimidinediamine [Compound 1311]”, the IC50 in test [1] (low cell density CHMC, tryptase, 3 pt) was over 10 µM; in test [2] (low cell density CHMC, tryptase, 3 pt, read-out: LD Tryptase, CHMC, IgE, 3 pt) it was under 10 µM.

Take `COC(=O)COc1ccc(Nc2nc(Nc3cc(C)cc(C)c3)ncc2F)cc1Cl` [Compound 614, N4-[3-Chloro-4-(methoxycarbonyl)methyleneoxyphenyl]-N2-(3,5-dimethylphenyl)-5-fluoro-2,4-pyrimidinediamine]: the IC50 in test [1] (setting [16]), in test [2] (setting [17]) and in test [2] (setting [18]) was under 10 µM each time.

`Cc1cc(C)cc(Nc2ncc(F)c(Nc3ccc(OCCO)nc3)n2)c1` [Compound 504, N2-(3,5-Dimethylphenyl)-5-fluoro-N4-[2-(2-hydroxyethyleneoxy)pyrid-5-yl]-2,4-pyrimidinediamine]: the IC50 in test [1] (low cell density, 3 pt) was over 10 µM; in test [2] (low cell density, 3 pt, read-out: LD Tryptase, CHMC, IgE, 3 pt), under 10 µM; in test [2] (low cell density, 8 pt, read-out: LD Tryptase, CHMC, IgE, 8 pt) it was under 10 µM.

Turning to `CN(c1ccc2c(c1)OCCO2)c1nc(NCCO)ncc1F` [Compound 469, N4-(3,4-Ethylenedioxyphenyl)-5-fluoro-N2-(2-hydroxyethyl)-N4-methyl-2,4-pyrimidinediamine], the IC50 in test [1] (setting [14]) and in test [2] (setting [15]) was over 10 µM throughout.

Regarding `CN(c1ccc2c(c1)NC(=O)C(C)(C)O2)c1nc(Nc2ccc(-c3ncco3)cc2)ncc1F` [Compound 1021], the IC50 in test [1] (setting [11]), in test [2] (setting [12]) and in test [2] (setting [13]) was under 10 µM in each case.

On to `CNC(=O)COc1cccc(Nc2ncc(F)c(N(C)c3ccc(Cl)c(OC)c3)n2)c1` [Compound 589, N4-(4-Chloro-3-methoxyphenyl)-5-fluoro-N4-methyl-N2-[3-(N-methylamino)carbonylmethyleneoxyphenyl]-2,4-pyrimidinediamine], for which the IC50 in test [1] (setting [16]) was over 10 µM; in test [2] (setting [17]), under 10 µM; in test [2] (setting [18]), under 10 µM.

On to `O=C1COc2cc(Nc3nc(Nc4cccc(-c5cnco5)c4)ncc3F)ccc2N1` [Compound 234], for which the IC50 is over 10 µM in test [1] (setting [3]), under 10 µM in test [2] (setting [4]) and under 10 µM in test [2] (setting [5]).

As for `CN1CCN(c2ccc(Nc3ncc(F)c(Nc4cc(C5CC5)n[nH]4)n3)cc2)CC1` [Compound 1113, N4-(3-Cyclopropyl-1H-pyrazol-5-yl)-5-fluoro-N2-[4-(4-methylpiperazino)phenyl]-2,4-pyrimidinediamine], the IC50 is over 10 µM in test [1] (setting [8]), under 10 µM in test [2] (setting [9]) and under 10 µM in test [2] (setting [10]).

In the case of `CN1C(=O)C(C)(C)Oc2ccc(N(C)c3nc(Nc4cccc(-c5ncco5)c4)ncc3F)cc21` [Compound 1025, 5-Fluoro-N4-methyl-N2-[3-(oxazol-2-yl)phenyl]-N4-(3-oxo-2,2,4-trimethylbenz[1,4]oxazin-6-yl)-2,4-pyrimidinediamine], the IC50 in test [1] (setting [11]) and in test [2] (setting [12]) was under 10 µM in each case.

In the case of `Fc1cnc(Nc2cccc(N3CCOCC3)c2)nc1NC1CCC1` [Compound 1108, N4-Cyclobutyl-5-fluoro-N2-(3-morpholinophenyl)-2,4-pyrimidinediamine], the IC50 in test [1] (setting [11]) is over 10 µM; in test [2] (setting [12]) it was under 10 µM; in test [2] (setting [13]), under 10 µM.

As to `COC(=O)CN(c1ccc2c(c1)OCCO2)c1nc(Nc2cc(C)cc(C)c2)ncc1F` [Compound 441], the IC50 in test [1] (setting [8]) was over 10 µM; in test [2] (setting [9]), under 10 µM.

On to `Fc1cnc(Nc2cccc(N3CCOCC3)c2)nc1NC1CCCCC1` [Compound 1166, N4-Cyclohexyl-5-fluoro-N2-(3-morpholinophenyl)-2,4-pyrimidinediamine], for which the IC50 in test [1] (setting [8]) is over 10 µM; in test [2] (setting [9]), under 10 µM.

Consider `O=C1COc2ccc(Nc3nc(Nc4cccc(-c5ncco5)c4)ncc3F)cc2N1` [Compound 219], for which the IC50 was over 10 µM in test [1] (setting [3]), under 10 µM in test [2] (setting [4]) and under 10 µM in test [2] (setting [5]).
